Laboratory results as given in patent publication US20080058349A1, “New Compounds 318” (Astrazeneca AB, priority 2006, published 2008).
Counter-ions that a name gives are not always drawn.

target: T1, human β-Secretase (Homo sapiens, UniProt P56817); assay: TR-FRET assay; format: biochemical; conditions: soluble human β-Secretase (sBACE-Fc), substrate (Europium)CEVNLDAEFK(Qsy7) 100 nM, pH 4.5;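 note: sBACE-Fc from HEK 293 cells, compound preincubated 10 min, then 15 min substrate reaction at RT in darkness, 5% DMSO, DMSO control as 100% and enzyme-free wells as 0%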
T1 construct: The soluble part of the human β-Secretase (AA 1-AA 460) was cloned; made in house
T1 sequence (P56817 22-460): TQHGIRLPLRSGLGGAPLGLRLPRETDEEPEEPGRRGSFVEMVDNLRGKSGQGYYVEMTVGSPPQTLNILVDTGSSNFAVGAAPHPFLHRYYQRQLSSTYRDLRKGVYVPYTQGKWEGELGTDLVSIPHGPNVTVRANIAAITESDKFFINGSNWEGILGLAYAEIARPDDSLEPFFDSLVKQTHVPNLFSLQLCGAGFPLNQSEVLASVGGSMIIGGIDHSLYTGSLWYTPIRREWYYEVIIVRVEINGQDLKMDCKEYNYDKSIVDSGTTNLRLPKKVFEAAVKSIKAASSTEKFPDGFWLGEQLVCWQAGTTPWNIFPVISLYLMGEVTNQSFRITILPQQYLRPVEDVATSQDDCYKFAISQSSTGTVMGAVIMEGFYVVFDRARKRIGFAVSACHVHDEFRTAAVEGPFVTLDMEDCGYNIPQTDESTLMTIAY

Molecule | IC50 [nM]
4-[5-Amino-7-(3′,5′-dichlorobiphenyl-3-yl)-2,7-dihydro-3H-imidazo[1,5-a]imidazol-7-yl]phenyl methanesulfonate 0.25 acetate [Example 61] | 146

same assay, conditions: soluble human β-Secretase (sBACE-Fc), substrate (Europium)[…](Qsy7) 100 nM, pH 4.5

Molecule | IC50 [nM]
COc1ccc(C2(c3cccc(-c4cc(Cl)cc(Cl)c4)c3)N=C(N)N3CC(O)CN=C32)cc1 (mixture of isomers) [Example 125, 6-Amino-8-(3′,5′-dichlorobiphenyl-3-yl)-8-(4-methoxyphenyl)-2,3,4,8-tetrahydroimidazo[1,5-a]pyrimidin-3-ol] | 22
COc1ccc(C2(c3cccc(-c4cc(Cl)cc(Cl)c4)c3)N=C(N)N3CC(OC)CN=C32)cc1 (mixture of isomers) [Example 126, 8-(3′,5′-Dichlorobiphenyl-3-yl)-3-methoxy-8-(4-methoxyphenyl)-2,3,4,8-tetrahydroimidazo[1,5-a]pyrimidin-6-amine] | 41
COc1ccc(C2(c3cccc(-c4cc(Cl)cc(Cl)c4)c3)N=C(N)N3CC(C#N)CN=C32)cc1 (mixture of isomers) [Example 127, 6-Amino-8-(3′,5′-dichlorobiphenyl-3-yl)-8-(4-methoxyphenyl)-2,3,4,8-tetrahydroimidazo[1,5-a]pyrimidine-3-carbonitrile] | 27
COc1ccc(C2(c3cccc(-c4cc(Cl)cc(Cl)c4)c3)N=C(N)N3CC(C(=O)O)CN=C32)cc1 (mixture of isomers) [Example 128, 6-Amino-8-(3′,5′-dichlorobiphenyl-3-yl)-8-(4-methoxyphenyl)-2,3,4,8-tetrahydroimidazo[1,5-a]pyrimidine-3-carboxylic acid] | 34
COc1ccc(C2(c3cccc(-c4cc(Cl)cc(Cl)c4)c3)N=C(N)N3CC(NC(C)=O)CN=C32)cc1 (mixture of isomers) [Example 129, N-[6-amino-8-(3′,5′-dichlorobiphenyl-3-yl)-8-(4-methoxyphenyl)-2,3,4,8-tetrahydroimidazo[1,5-a]pyrimidin-3-yl]acetamide] | 21
COc1ccc(C2(c3cccc(-c4cc(Cl)cc(Cl)c4)c3)N=C(N)N3CC(NS(C)(=O)=O)CN=C32)cc1 (mixture of isomers) [Example 130, N-[6-Amino-8-(3′,5′-dichlorobiphenyl-3-yl)-8-(4-methoxyphenyl)-2,3,4,8-tetrahydroimidazo[1,5-a]pyrimidin-3-yl]methanesulfonamide] | 17
COc1ccc(C2(c3cccc(-c4cc(Cl)cc(Cl)c4)c3)N=C(N)N3C2=NCC[C@H]3C(=O)O)cc1 (mixture of isomers) [Example 131, (4S)-6-amino-8-(3′,5′-dichlorobiphenyl-3-yl)-8-(4-methoxyphenyl)-2,3,4,8-tetrahydroimidazo[1,5-a]pyrimidine-4-carboxylic acid] | 159
COc1cccc(-c2cccc(C3(c4ccccc4)N=C(N)N4CCCN=C43)c2)c1 (stereo not shown) [Example 30, 8-(3′-Methoxybiphenyl-3-yl)-8-phenyl-2,3,4,8-tetrahydroimidazo[1,5-a]pyrimidin-6-amine hydrochloride] | 510
NC1=NC(c2ccccc2)(c2cccc(-c3cccc(Cl)c3)c2)C2=NCCCN12 (stereo not shown) [Example 31, 8-(3′-Chlorobiphenyl-3-yl)-8-phenyl-2,3,4,8-tetrahydroimidazo[1,5-a]pyrimidin-6-amine hydrochloride] | 255
NC1=NC(c2ccc(OS(=O)(=O)C(F)(F)F)cc2)(c2cccc(-c3cccc(Cl)c3)c2)C2=NCCN12 (stereo not shown) [Example 96, 4-[5-Amino-7-(3′-chlorobiphenyl-3-yl)-2,7-dihydro-3H-imidazo[1,5-a]imidazol-7-yl]phenyl trifluoromethanesulfonate 0.75 acetate] | 227
NC1=NC(c2ccc(OS(=O)(=O)C(F)(F)F)cc2)(c2cccc(-c3cccc(Cl)c3)c2)C2=NCCCN12 (stereo not shown) [Example 99, 4-[6-Amino-8-(3′-chlorobiphenyl-3-yl)-2,3,4,8-tetrahydroimidazo[1,5-a]pyrimidin-8-yl]phenyl trifluoromethanesulfonate acetate] | 113
COc1ccc(F)c(-c2cccc(C3(c4ccccc4)N=C(N)N4CCCN=C43)c2)c1 (stereo not shown) [Example 100, 8-(2′-Fluoro-5′-methoxybiphenyl-3-yl)-8-phenyl-2,3,4,8-tetrahydroimidazo[1,5-a]pyrimidin-6-amine hydrochloride] | 305
NC1=NC(c2ccccc2)(c2cccc(-c3cc(Cl)ccc3F)c2)C2=NCCCN12 (stereo not shown) [Example 101, 8-(5′-Chloro-2′-fluorobiphenyl-3-yl)-8-phenyl-2,3,4,8-tetrahydroimidazo[1,5-a]pyrimidin-6-amine hydrochloride] | 378
NC1=NC(c2ccccc2)(c2cccc(-c3cc(Cl)cc(Cl)c3)c2)C2=NCCCN12 (stereo not shown) [Example 102, 8-(3′,5′-Dichlorobiphenyl-3-yl)-8-phenyl-2,3,4,8-tetrahydroimidazo[1,5-a]pyrimidin-6-amine hydrochloride] | 149
COc1cc(OS(C)(=O)=O)cc(-c2cccc(C3(c4ccccc4)N=C(N)N4CCCN=C43)c2)c1 (stereo not shown) [Example 103, 3′-(6-Amino-8-phenyl-2,3,4,8-tetrahydroimidazo[1,5-a]pyrimidin-8-yl)-5-methoxybiphenyl-3-yl methanesulfonate hydrochloride] | 727
COc1ccc(C2(c3cccc(-c4cc(Cl)cc(Cl)c4)c3)N=C(N)N3CC(S(C)(=O)=O)CN=C32)cc1 (stereo not shown) [Example 124, 8-(3′,5′-Dichlorobiphenyl-3-yl)-8-(4-methoxyphenyl)-3-(methylsulfonyl)-2,3,4,8-tetrahydroimidazo[1,5-a]pyrimidin-6-amine 2.0 acetate] | 39
COc1ccc(C2(c3cccc(-c4cc(Cl)cc(Cl)c4)c3)N=C(N)N3CC(F)(F)CN=C32)cc1 (stereo not shown) [Example 132, 8-(3′,5′-Dichlorobiphenyl-3-yl)-3,3-difluoro-8-(4-methoxyphenyl)-2,3,4,8-tetrahydroimidazo[1,5-a]pyrimidin-6-amine 0.75 acetate] | 32
COc1ccc(C2(c3cccc(-c4cc(Cl)cc(Cl)c4)c3)N=C(N)N3CC(F)CN=C32)cc1 (stereo not shown) [Example 136, 8-(3′,5′-Dichlorobiphenyl-3-yl)-3-fluoro-8-(4-methoxyphenyl)-2,3,4,8-tetrahydroimidazo[1,5-a]pyrimidin-6-amine 1.5 acetate] | 34
CS(=O)(=O)Oc1cccc(C2(c3cccc(-c4cc(C(F)(F)F)cc(C(F)(F)F)c4)c3)N=C(N)N3CCCN=C32)c1 (stereo not shown) [Example 176, 3-[6-Amino-8-[3′,5′-bis(trifluoromethyl)biphenyl-3-yl]-2,3,4,8-tetrahydroimidazo[1,5-a]pyrimidin-8-yl]phenyl methanesulfonate] | 1200
NC1=NC(c2cccc(OS(=O)(=O)C(F)(F)F)c2)(c2cccc(-c3cccc(Cl)c3)c2)C2=NCCCN12 (stereo not shown) [Example 177, 3-[6-Amino-8-(3′-chlorobiphenyl-3-yl)-2,3,4,8-tetrahydroimidazo[1,5-a]pyrimidin-8-yl]phenyl trifluoromethanesulfonate] | 246
COc1cccc(C2(c3cccc(-c4cc(Cl)cc(Cl)c4)c3)N=C(N)N3CCCN=C32)c1 (stereo not shown) [Example 178, 8-(3′,5′-Dichlorobiphenyl-3-yl)-8-(3-methoxyphenyl)-2,3,4,8-tetrahydroimidazo[1,5-a]pyrimidin-6-amine] | 92
CS(=O)(=O)Oc1cccc(C2(c3cccc(-c4cc(Cl)cc(Cl)c4)c3)N=C(N)N3CCCN=C32)c1 (stereo not shown) [Example 181, 3-[6-Amino-8-(3′,5′-dichlorobiphenyl-3-yl)-2,3,4,8-tetrahydroimidazo[1,5-a]pyrimidin-8-yl]phenyl methanesulfonate] | 106
CS(=O)(=O)Oc1cccc(C2(c3cccc(-c4cccc(Cl)c4)c3)N=C(N)N3CCCN=C32)c1 (stereo not shown) [Example 182, 3-[6-Amino-8-(3′-chlorobiphenyl-3-yl)-2,3,4,8-tetrahydroimidazo[1,5-a]pyrimidin-8-yl]phenyl methanesulfonate] | 285
COc1cccc(-c2cccc(C3(c4cccc(OS(C)(=O)=O)c4)N=C(N)N4CCCN=C43)c2)c1 (stereo not shown) [Example 183, 3-[6-Amino-8-(3′-methoxybiphenyl-3-yl)-2,3,4,8-tetrahydroimidazo[1,5-a]pyrimidin-8-yl]phenyl methanesulfonate] | 252
CCCS(=O)(=O)Oc1cccc(C2(c3cccc(-c4cc(Cl)cc(Cl)c4)c3)N=C(N)N3CCCN=C32)c1 (stereo not shown) [Example 184, 3-[6-Amino-8-(3′,5′-dichlorobiphenyl-3-yl)-2,3,4,8-tetrahydroimidazo[1,5-a]pyrimidin-8-yl]phenyl propane-1-sulfonate] | 69
CCCS(=O)(=O)Oc1cccc(C2(c3cccc(-c4cccc(OC)c4)c3)N=C(N)N3CCCN=C32)c1 (stereo not shown) [Example 185, 3-[6-Amino-8-(3′-methoxybiphenyl-3-yl)-2,3,4,8-tetrahydroimidazo[1,5-a]pyrimidin-8-yl]phenyl propane-1-sulfonate] | 106
NC1=NC(c2cccc(OS(=O)(=O)C3CC3)c2)(c2cccc(-c3cc(Cl)cc(Cl)c3)c2)C2=NCCCN12 (stereo not shown) [Example 186, 3-[6-Amino-8-(3′,5′-dichlorobiphenyl-3-yl)-2,3,4,8-tetrahydroimidazo[1,5-a]pyrimidin-8-yl]phenyl cyclopropanesulfonate] | 51
